Laboratory results as given in US20030022151A1, “Functional screening” (priority 2001, published 2003).

How the values were obtained:
PS1 = PS1 (Homo sapiens, UniProt P49768); conditions: previously reported (Shearman et al., 2000); cited from earlier work
PS1-Sh ble polypeptide = biological target: T1, PS1-Sh ble polypeptide (UniProt P17493+P49768); test: Level of PS1-Sh ble polypeptide after inhibitor treatment; assay type: cell-based; conditions: FIG. 13 legend
T1 construct: Sh ble protein (Ble, bleomycin/zeocin resistance protein of Streptoalloteichus hindustanus, 124 aa); expressed in transfected cells

PS2 = PS2 (Homo sapiens, UniProt P49810); conditions: previously reported (Shearman et al., 2000); cited from earlier work
[1] = tested on: Stable N2a cells expressing PS1 chimeric proteins; test: Zeocin toxicity / cell viability assay (WST-1) in stable N2a cells expressing PS1 chimera; assay type: cell-based, mouse
Description: (§1) Cultured stable N2a cells expressing chimeric PS1 polypeptides were tested for cell viability in the presence of increasing concentrations of zeocin and in the presence and absence of known presenilin inhibitors in multi-well formats (FIG. 11). […] In these assays, cell viability can be assayed by commercially available cell viability ELISA kits.
(§2) Stable N2a cells expressing PS1 chimeric proteins or the parental N2a cell line were plated at a density of 6.25×10^3 cells/well into 96-well tissue culture dishes in a volume of 90 µl/well. Serial dilutions of Zeocin were added (2 mg/ml to 0.0625 mg/ml final concentration) in a volume of 10 µl/well. In some experiments the γ-secretase inhibitor, […] (purchased from Bachem) was added at a final concentration of 1 μM to one set of wells. The cells were incubated from 2 to 3 days at 37° C. Then 10 μl of Cell Proliferation Reagent WST-1 (Roche Biochemical) was added to each well. The plate was shaken for 30 sec. then placed back in the 37° C. incubator. The plate was read at 450 nm after 30 min., 1 h, 2 h and 3h in a Benchmark Plus Absorbance Plate Reader (BioRad).

parental PS1ΔBle cells = parental PS1ΔBle cells expressing very low levels of PS1ΔBle
Description: For the screen, a cell line that expresses very low levels of the PS1ΔBle protein is chosen so that the chimera is largely present as cleaved PS1 NTF and PS1ΔBleCTF. Thus, transgene-derived expression of a putative protein that facilitates increased accumulation of PS1ΔBle confers increased bleomycin (Zeocin) resistance to the target cell. […] After allowing infection/transgene expression for 2-3 days, the infected population of cells are subject to antibiotic selection in 1-2 mg/ml zeocin (5-10 times greater than the concentration normally used for selecting stable clones). At this higher concentration, only cells that accumulate several fold higher levels of PS1ΔBle relative to parental PS1ΔBle cells (that are resistant to 0.2 mg/ml), form colonies. […] If overexpression of a particular cDNA caused increased accumulation of PS1ΔBle, and therefore, an increased resistance to zeocin, in a clone, the cDNA rescued from the clone will confer increased resistance to the parental PS1ΔBle cells during the rescreening.

parental N2a cell line = conditions: parental cells; lowest zeocin concentration tested (0.2 mg/ml); FIG. 12
Description: as §1, §2

Structure (SMILES)	binding to PS1 (PS1)	levels of the PS1-Sh ble polypeptide (PS1-Sh ble polypeptide)	binding to PS2 (PS2)	zeocin concentrations at which inhibitor-treated cells are viable ([1]; cells expressing PS1 chimera treated with inhibitor (1 μM), FIG. 13) [mg/mL]	resistance to zeocin conferred by the PS1 chimera ([1]; inhibitor at final concentration of 1 μM plus zeocin, FIG. 13)	zeocin concentration to which cells are resistant (parental PS1ΔBle cells) [mg/mL]	cell viability in presence of zeocin (parental N2a cell line)	zeocin concentrations at which cells are viable ([1]; cells expressing PS1 chimera, 2 to 3 days at 37° C., WST-1 read at 450 nm, FIG. 12) [mg/mL]
CC(C)C[C@H](NC(=O)[C@H](Cc1ccccc1)C[C@@H](O)[C@H](Cc1ccccc1)NC(=O)OC(C)(C)C)C(=O)N[C@@H](Cc1ccccc1)C(N)=O [L-685,458]	bind	reduces the levels	bind	0 to 2	reduced the resistance to zeocin	–	–	–
Cc1c(N)nc([C@H](CC(N)=O)NC[C@H](N)C(N)=O)nc1C(=O)N[C@H](C(=O)N[C@H](C)[C@@H](O)[C@H](C)C(=O)N[C@H](C(=O)NCCC1=N[C@@H](c2nc(C(=O)NCCCCN=C(N)N)cs2)CS1)[C@@H](C)O)[C@@H](O[C@@H]1O[C@@H](CO)[C@@H](O)[C@H](O)[C@@H]1O[C@H]1O[C@H](CO)[C@@H](O)[C@H](OC(N)=O)[C@@H]1O)c1cnc[nH]1 [zeocin]	–	–	–	–	–	0.2	significantly less viable	0 to 4
